Test results as given in patent US20190247302A1, “MATERIALS AND METHODS FOR TREATING OPHTHALMIC INFLAMMATION” (University of Miami, priority 2016, published 2019).
“Also recorded” adds a separate entry of the source.

Key:
[1] = test system: conjunctival epithelial cells (HCEC); experiment: Cytokine mRNA in LPS-exposed human conjunctival epithelial cells (HCEC); format: cell-based; conditions: 3 hours LPS, 500 nM
Experimental: (§1) FIGS. 8A-8C are a bar graph illustrating the effect of BRDi on a human ocular surface primary parenchymal cell line. FIG. 8A illustrates cytokine/GAPDH mRNA levels (ratio to no treatment) (Y-axis) of IL-8, IL-1β, IL-6, TNFα, and CCL2 in HCEC administered no treatment (solid bars), three hours after exposure to LPS (gray bar), and three hours after exposure to LPS and JQ1 (500 nM, hashed bar). FIG. 8B illustrates cytokine/GAPDH mRNA levels (ratio to no treatment) (Y-axis) of IL-8, IL-1β, and IL-6 in keratocytes administered no treatment (solid bars), four hours after exposure to LPS (gray bar), four hours after exposure to LPS and JQ1 (500 nM, hashed bar), and four hours after exposure to LPS and EP313 (500 nM, checked bar). FIG. 8C illustrates cytokine/GAPDH mRNA levels (ratio to no treatment) (Y-axis) of CCL2 in keratocytes administered no treatment (solid bars), four hours after exposure to LPS (gray bar), four hours after exposure to LPS and JQ1 (500 nM, hashed bar), and four hours after exposure to LPS and EP313 (500 nM, checked bar).
The ability of BRDi compounds to regulate production of dry eye-associated cytokines and chemokines produced by human ocular parenchymal cell populations also was examined. In vitro cells from the cornea and conjunctiva compartments of donated human eyes (Florida Lions Bank) were expanded. Primary cell lines were developed comprising either corneal keratocytes or conjunctival epithelial cells (HCEC) (FIG. 8A-8C). Following 3 hr. exposure to LPS, HCEC produced significant levels of IL-8, […], TNFα, CCL2, and detectable levels of IL-6 RNA (FIG. 8A). […] Corneal keratocyte cultures were also examined for RNA production and were also regulated by BRDi compounds JQ1 and EP313 (FIGS. 8B and 8C). […] These observations extend the potential of BRDi to inhibit ocular inflammation. Additionally, differences may exist between the families of BRDi compounds such that particular BRDi may be more useful under a specific set of disease conditions.

[2] = test system: LPS-induced keratitis; experiment: LPS-induced keratitis, local BRDi administration; clinical haze score; format: in vivo
Description: FIG. 5 is a bar graph illustrating the effect of prior formulations on corneal clarity and corneal edema following LPS-induced keratitis. Y axis=clinical haze score; X axis=time after application of LPS+formulations (IBET151, topical (solid bar); IBET151, subconjunctival (hashed bar); solvent, subconjunctival (dotted bar)). […] FIG. 6 is a bar graph illustrating the effect of a formulation of the instant disclosure (administered via subconjunctival injection) on corneal clarity and corneal edema following LPS-induced keratitis. Y axis=clinical haze score; X axis=time after application of LPS+IBET151 formulation (solid bar); solvent alone (hashed bar); saline (dotted bar)). […] FIG. 7 is a bar graph illustrating the effect of a formulation of the instant disclosure (topical administration) on corneal clarity and corneal edema following LPS-induced keratitis. Y axis=clinical haze score; X axis=time after application of LPS+JQ1 formulation (topical, hashed bar); solvent alone (subconjunctival, dotted bar)). […] Next, to address whether local administration of bromodomain inhibitors could be used to regulate ocular inflammatory responses, an ophthalmic formulation BRDi compounds was developed. De novo development was required because the solution required to dissolve these non-polar compounds was not amenable to application to the ocular surface, as they require dilution in high concentrations of DMSO and Tween 80. […] The new formulation comprising bromodomain inhibitor IBET-151 was delivered locally in the eye by subconjunctival injection (20 μg/kg/body weight) just prior and during the induction of in vivo LPS-induced keratitis. […] To confirm that a second bromodomain inhibitor could successfully be used in the ocular compartment to reduce inflammation, JQ1 dissolved in the new ophthalmologic formulation was locally administered (1 μg/μl). The formulation was applied topically, i.e. on the corneal surface 1 drop/3× per day.

[3] = Concentration of bromodomain inhibitor achievable in the new ophthalmic formulation; format: physicochemical; conditions: 0.5% DMSO, 0.5% Tween-80, 0.9% NaCl, 1.8% Captisol, versus previous formulations
Description: Next, to address whether local administration of bromodomain inhibitors could be used to regulate ocular inflammatory responses, an ophthalmic formulation BRDi compounds was developed. De novo development was required because the solution required to dissolve these non-polar compounds was not amenable to application to the ocular surface, as they require dilution in high concentrations of DMSO and Tween 80.
To address this issue, a new ophthalmic formulation was developed. The bromodomain inhibitors were successfully diluted at higher concentrations when formulated with DMSO, polysorbate (Tween-80), preservative free 0.9% NaCl, and captisol (Captisol®), which is a polyanionic beta-cyclodextrin derivative providing. […] Using this new formulation, the concentrations of both DMSO and Tween-80 were able to be reduced, from 5% to 0.5% of each (which is tolerable to the eye). The final solution containing the bromodomain inhibitors was 0.5% DMSO, 0.5% Tween-80 and 1.8% Captisol.

[4] = test system: corneal keratocytes; experiment: Cytokine mRNA in LPS-exposed human corneal keratocytes; format: cell-based; conditions: 4 hours LPS, 500 nM
Experimental: as §1
The ability of BRDi compounds to regulate production of dry eye-associated cytokines and chemokines produced by human ocular parenchymal cell populations also was examined. In vitro cells from the cornea and conjunctiva compartments of donated human eyes (Florida Lions Bank) were expanded. […]

[5] = test system: TNFα production in RAW cells; experiment: TNFα protein in LPS-treated RAW cells, intracellular antibody staining and flow cytometry; format: cell-based; conditions: 1 μg/ml LPS, BRDi 67.5-500 nM
Experimental: Y axis=TNFα percentage of P1 gate; X axis=no LPS/no BRDi, 1 μg/ml LPS/no BRDi, BRDI 500 nM LPS, BRDI 250 nM LPS, BRDI 125 nM LPS, BRDI 67.5 Nm LPS. Triangles=JQ1; squares=IBET151; circles=EP313.
Studies then examined protein production and confirmed that TNFα was reduced by treating RAW cells in vitro with multiple bromodomain inhibitor compounds (FIG. 2).

SMILES	CCL2 RNA level [1]	IL-1β RNA level [1]	IL-6 RNA level [1]	IL-8 RNA level [1]	TNFα RNA level [1]	clinical haze score (corneal clarity and corneal edema) ([2]; new formulation RLVP.001, topical, 1 μg/μl, 1 drop/3× per day)	concentration of bromodomain inhibitor that can be formulated [3]	cytokine RNA production [4]	TNFα protein (TNFα percentage of P1 gate) [5]	clinical haze score (corneal clarity and corneal edema) ([2]; new formulation RLVP.001, subconjunctival injection, 20 μg/kg/body weight)	clinical haze score (corneal clarity and corneal edema) ([2]; new formulation RLVP.001, subconjunctival injection, 20 μg/kg/body weight, listed as IBET-151)
Cc1sc2c(c1C)C(c1ccc(Cl)cc1)=N[C@@H](CC(=O)OC(C)(C)C)c1nnc(C)n1-2 [JQ1]	marked decreases	marginally reduced	marked decreases	marked decreases	marked decreases	prevents corneal opacification; also recorded: successfully ameliorated the inflammatory response in the cornea	significantly higher concentrations	regulated	TNFα protein inhibition		
COc1cc2c(cc1-c1c(C)noc1C)ncc1[nH]c(=O)n([C@H](C)c3ccccn3)c12 [IBET151]							significantly higher concentrations		TNFα protein inhibition	prevents corneal opacification	ameliorates the development of corneal inflammation
